The target in this test is T1, human TAS2R44 bitter taste receptor (Homo sapiens, UniProt P59538, L162M).
T1 construct: The TAS2R44 construct contains RSS tag, TAS2R44, and the HSV tag which are fused in frame; expressed in transfected cells; host or cells: HEK293T cells stably expressing Galpha16-gustducin44
T1 sequence (P59538 with tags, fused parts or gaps L162M): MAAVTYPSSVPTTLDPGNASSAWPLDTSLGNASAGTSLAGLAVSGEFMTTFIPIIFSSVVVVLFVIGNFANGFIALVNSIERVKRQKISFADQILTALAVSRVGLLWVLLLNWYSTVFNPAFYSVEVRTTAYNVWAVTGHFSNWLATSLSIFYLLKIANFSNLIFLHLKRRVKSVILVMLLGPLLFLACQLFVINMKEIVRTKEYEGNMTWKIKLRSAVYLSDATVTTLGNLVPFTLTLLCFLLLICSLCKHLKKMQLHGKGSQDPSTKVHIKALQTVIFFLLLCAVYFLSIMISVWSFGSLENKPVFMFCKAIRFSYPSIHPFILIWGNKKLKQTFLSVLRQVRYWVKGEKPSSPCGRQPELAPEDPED
The test is described as follows: TAS2R44 bitter taste receptor Fluo-4 calcium assay for IC50 determination. It is filed as cell-based. Here is the method:
A taste receptor screen and concentration-response analysis was performed and from results inhibitory concentration (IC) IC50 values can be calculated by nonlinear regression using the function f(x)=(a−d)/(1+(x/C)^nh)+d; with a=minimum signal, d=maximum signal, nh=hill coefficient, C=IC50 and x=concentration of antagonist. IC50 is the molar concentration of an antagonist which produces 50% of the maximum possible inhibitory response for that antagonist.
TAS2R44 Bitter Taste Receptor Assay for IC 50 Determination
The full length gene of human TAS2R44 was amplified by polymerase chain reaction (PCR) using gene-specific primers that span the entire coding region as described in WO 2004/029087.
The TAS2R44 cDNA was subcloned into an expression cassette based on either of the following plasmids/expression vectors: pcDNA3.1Zeo (Invitrogen). These vectors contain within their multiple cloning sites the nucleotide sequence coding for the first 45 amino acids of the rat somatostatin receptor subtype 3 (RSS tag) to facilitate cell surface targeting of the transgene (SEQ ID #4) and the nucleotide sequence coding for the herpes simplex virus (HSV) glycoprotein D epitope (HSV epitope in aminoterminal to carboxyterminal direction, HSV tag). (SEQ ID #3) for facilitating immunocytochemical detection.
The TAS2R44 construct contains RSS tag, TAS2R44, and the HSV tag which are fused in frame to allow translation into the receptor protein and the resulting receptor cDNA.
This transfected expression vector is called pcDNA3.1Zeo-TAS2R44 (SEQ ID #1) and allows for expression of the TAS2R44 protein (SEQ ID #2).
A cell line that stably expresses the human bitter taste receptor (TAS2R44) was generated by transfecting pcDNA3.1Zeo-TAS2R44 into HEK293T/Gα16-gustducin 44 cells (both formed as described in under 1) above). The host cell line HEK-293T is commercially available from the American […] (catalog #CRL-1573).
On day 0, the HEK293T Gα16-gustducin44 cells were seeded in a 6-well plate at a density of 900,000 cells per well and grown over night in selective growth medium (DMEM with 10% (v/v) heat-inactivated fetal bovine serum, 2 mM L-glutamine, 100 units/ml penicillin, 100 μg/ml streptomycin, 200 μg/ml G418 and 200 μg/ml zeocin). On day 1, the medium was exchanged with 2 ml of antibiotic-free and serum-free growth medium. 10 μl Lipofectamine 2000 was dissolved in 250 μl DMEM and incubated for 5 minutes at room temperature. In parallel, 4 μg TAS2R44 vector DNA were dissolved in 250 μl DMEM. These two resulting solutions are mixed and incubated for 20 minutes at room temperature before they are added to the cells into the cell culture medium. After 4 hours, the medium is replaced with antibiotic-free, serum-containing growth medium.
Fluo-4_AM (Invitrogen) is a fluorescent indicator of intracellular calcium dynamics (change in concentration) and allows monitoring changes in the calcium concentration, particularly an increase in response to receptor activation occurring after agonist exposure.
At day 0, the HEK293T cell line stably expressing Gα16-gustducin44 and TAS2R44 formed as described under 2) was seeded in antibiotic-free growth medium (standard DMEM with 10% (v/v) heat-inactivated fetal bovine serum, 2 mM L-glutamine […]) into black wall/clear bottom 96-well plates, coated with poly(ethylenimine) (0.005% v/v) at a concentration of 15,000 cells per well and incubated for 48 hours in humidified atmosphere (37° C., 5% CO2).
At the time of the assay, the growth medium was discarded and the cells were further incubated in a humidified atmosphere (37° C., 5% CO2) for 1 hour with 50 μl of loading buffer consisting of 1.5 μM Fluo-4 AM and […] (Sigma-Aldrich) in DMEM. […]

The mark [1] stands for this setting: agonist not stated, read-out: IC50 when tested with the TAS2R44 bitter taste receptor.
The mark [2] stands for this setting: Acesulfame K (0.8 mM) as agonist, same range as example 3.
[3] abbreviates: saccharin (0.5 mM) as agonist, HEK293T cells expressing Gα16-gustducin44 and TAS2R44, read-out: IC50.

This note sets out measurements from patent US10172378B2, “Mono- or bicyclic carboxylic acids as off-note blockers” (Givaudan, S.A., priority 2007, dated 2019).

Molecules are shown by their SMILES. Like-named read-outs stand apart in the source and are kept apart here.

Turning to `CCC(C)[C@H]1CC[C@@H](C(=O)O)CC1` (stereo partly drawn) [cis-4-sec-butylcyclohexanecarboxylic acid], the half-maximal inhibitory concentration (IC50) under setting [1] was in the range of 0.1 to 20 µM.

`CCC[C@]12CC[C@](C(=O)O)(CC1)CC2` [cis-4-propylbicyclo[2.2.2]octane-1-carboxylic acid]: under setting [1], the IC50 was in the range of 0.1 to 20 µM.

As for `CCC[C@H]1CC[C@@H](C(=O)O)CC1` [cis-4-propylcyclohexanecarboxylic acid], the IC50 result reads like this: under setting [2], “within the same range”; under setting [1], 0.1 to 20 µM; under setting [3], 0.05 to 25 µM.

Consider `O=C(O)[C@H]1CC[C@@H](Cc2ccccc2)CC1` [cis-4-benzylcyclohexanecarboxylic acid], for which the half-inhibitory concentration (IC50) under setting [1] fell in the range of 0.1 to 20 µM.

On to `CC(C)(C)[C@H]1CC[C@@H](C(=O)O)CC1` [cis-4-tert-butylcyclohexanecarboxylic acid], for which the 50% inhibitory concentration (IC50) result was “within the same range” under setting [2], 0.1 to 20 µM under setting [1] and 0.05 to 25 µM under setting [3].

Regarding `O=C(O)[C@H]1CC[C@@H](c2ccccc2)CC1` [cis-4-phenylcyclohexanecarboxylic acid], the IC50 under setting [1] was 0.1 to 20 µM.

For `CC(C)CCC[C@H]1CC[C@@H](C(=O)O)CC1` [cis-4-(4-methylpentyl)cyclohexanecarboxylic acid], the IC50 under setting [1] is 0.1 to 20 µM.

Broadly, the IC50 is the concentration at which inhibition is half-maximal.
